# Measurements taken from US8580775B2, “Use of derivatives of sinapinic acid and compositions comprising such derivatives” (Cognis IP Management GmbH, priority 2007, dated 2013).
# Test system: Melanocytes (B16 cell line)
# Assay: Melanogenesis Inhibition Assay
# Type: cell-based
# Settings: for Protein level (rate of cellular proteins) / Melanin level: B16 melanocytes, 3 days incubation, mean +/− SEM; for Protein level (rate of cellular proteins): Bradford's method; for Melanin level: optical density at 475 nm
# Description: Melanocytes (B16 cell line) were inoculated in standard medium of cell culture with foetal calf serum (FCS). After an incubation of 3 days at 37° C. under 5% CO2, growth medium was exchanged for standard medium with a range of concentrations for each compound to be tested and a control without ingredient. After an incubation of 3 days, the level of melanin was measured by recording the optical density at 475 nm. After washing the cells with a balanced salt buffer, and homogenisation in a solution of 0.1 M NaOH, the number of viable cells was determined by evaluation of the level of cellular proteins (Bradford's method).
# The results are expressed in % against control (cell culture medium without compound) as a mean+/−SEM (Standard Error of Mean) on 2 or 3 assays, each in triplicate.
Structure (SMILES),Protein level (rate of cellular proteins) (dose 0.0003 % (w/v)),Melanin level (dose 0.0003 % (w/v)),Protein level (rate of cellular proteins) (dose 0.001 % (w/v)),Melanin level (dose 0.001 % (w/v)),Protein level (rate of cellular proteins) (dose 0.003 % (w/v)),Melanin level (dose 0.003 % (w/v)),Protein level (rate of cellular proteins) (dose 0.01 % (w/v)),Melanin level (dose 0.01 % (w/v)),cell toxicity (summary in words of Table 3),rate of melanin synthesis in melanocytes (summary in words of Table 3)
"COc1cc(/C=C/C(=O)O)cc(OC)c1OC(C)=O [example 1, 3,5-dimethoxy-4-acetoxy-cinnamic acid]",100 +/− 1 %/control,86 +/− 2 %/control,95 +/− 1 %/control,67 +/− 2 %/control,93 +/− 3 %/control,26 +/− 1 %/control,81 +/− 10 %/control,19 +/− 2 %/control,without cell toxicity,decreased
CCOC(=O)/C(=C/c1cc(OC)c(O)c(OC)c1)C(C)=O [example 2],,,110 +/− 10 %/control,108 +/− 3 %/control,123 +/− 9 %/control,54 +/− 6 %/control,,,without cell toxicity,
